These results are taken from patent US20210221848A1, “POLYMYXIN DERIVATIVES AND THEIR USE IN COMBINATION THERAPY TOGETHER WITH DIFFERENT ANTIBIOTICS” (priority 2014, published 2021).

Usually MIC stands for the smallest concentration in the dilution series that meets the test's criterion for growth inhibition.

In one series the test system is HK-2 cell line. Briefly: In vitro renal cell toxicity assay (resazurin reduction). As to the method:
MICs were determined as described herein. HK-2 cell IC50 values were determined as described herein. Values are reported relative to Polymyxin B.
On the technique in general: Resazurin is reduced to fluorescent resorufin, in cell work by metabolically active cells.

Series [1] has as its system Pseudomonas aeruginosa ATCC 27853. Format: in vivo. The conditions noted are these: ATCC 27853, in vivo, sc, 17.2 mg/kg, 10 h. The protocol: Groups of 7 male neutropenic specific-pathogen-free CD-1 mice weighing 21.5-27.5 g were used. On Day 0, animals were infected with 0.04 mL inoculum by intranasal instillation into mouse nostrils and were kept in an upright position on a string rack for ˜10 min post-infection. […] At 2 h, the CFU count was determined from 3 mice and the remaining mice (7 per test compound groups) were treated with a subcutaneous injection of the drug at +2, 6 and 10 hr post-infection. Test compounds and the comparator polymyxin B were administered at four concentrations (2.6, 8.6, 17.2 and 25.8 mg/kg free base). The vehicle control group (7 mice) was treated with 0.9% saline for injection at 2, 6 and 10 h post-infection.
Sixteen hours after infection, the mice were euthanized humanely. The lungs of each animal were harvested, homogenized and quantitatively cultured onto CLED agar for CFU determination. Decrease of the total CFU compared to control counts at 16 h post-infection was determined for each dose group.
The in vivo efficacy of 4 compounds of the invention (D25, D36, D42 and D50) was evaluated in a mouse lung infection model of P. aeruginosa ATCC 27853. The model was setup as described above with the exception that groups of up to 8 mice were inoculated through intranasal instillation of ˜2.5×10^6 CFUs of P. aeruginosa isolate ATCC 27853 (1.0×10^5 CFU/lung). Test compounds were administered at two concentrations (equivalent to 4.3 and 17.2 mg/kg free base). Three dose levels of polymyxin B sulfate were used as comparator (equivalent to 4.3, 8.6 and 17.2 mg/kg free base).

≈ marks a conversion by molar mass, not a printed value. Bridge positions count the residues as written; N and C are the ends. Square brackets hold non-standard residues; d marks the D form. Peptide text beside a SMILES is read from it. * marks the point of attachment. aThr = C[C@H](O)[C@H](N)C(=O)O; X2 = CC(C)CN1CCNC[C@H]1C(=O)*; Dab = NCC[C@H](N)C(=O)O

On to `CC(C)C[C@@H]1NC(=O)[C@@H](Cc2ccccc2)NC(=O)[C@H](CCN)NC(=O)[C@@H](NC(=O)[C@H](CCN)NC(=O)[C@@H](NC(=O)[C@@H]2CNCCN2CC(C)C)[C@H](C)O)CCNC(=O)[C@H]([C@@H](C)O)NC(=O)[C@H](CCN)NC(=O)[C@H](CCN)NC1=O` [Example D36, (S)-1-(2-methylpropyl)-piperazine-2-carbonyl polymyxin B nonapeptide] (X2-[aThr][Dab][Dab][Dab][dF]L[Dab][Dab]T; lactam 3-C), for which the MIC with K. pneumoniae is 0.25 µg/mL (≈ 0.221 µM). The “HK-2 IC50 rel to PMB” value in the series on HK-2 cell line amounted to 4.5. Besides, in series [1], the “Mean log10 CFU reduction vs. control” value was found to be 5.30 log10 CFU.
